Test results reported in patent US12404332B2, “Methods for diagnosing and treating cancers” (Research Development Foundation, priority 2020, dated 2025).

Experiments:
[1] = system: PD-L1; experiment: Tumor cell PD-L1 depletion by drugs (flow cytometry, immunoblot); type: cell-based, human and mouse; conditions: summary statement
Method: High throughput Screening: B16 PD-L1 RFP cells were treated with 2.5 and 10 μM compounds from the Prestwick and LOPAC Libraries for 48 hours using the Agilent Bravo liquid pipetting platform. Then, cells were washed with PBS, and fixed with 4% paraformaldehyde (Electron Microscopy Sciences, Hatsfield, PA, Cat 15714S) and labeled with 2 μg/ml DAPI, (Molecular Probes, Cat D1306) and 1 μg/ml Cell Mask-Blue (Invitrogen, Cat. H32720). Plates were then imaged using the Operetta High Content Imaging System, Perkin Elmer, Waltham (DAPI and Cell Mask Blue, Ex 360-400, Em 410-480), and the RFP channels (Ex 520-550, Em 560-630) channels. Agents effecting ≥2-fold PD-L1 reduction in the RFP reporter without loss of ≥20% cell viability were candidate PD-L1 depletion agents.
Flow cytometry: Mice were sacrificed by cervical dislocation after induction of deep isoflurane anesthesia. ID8agg tumors were collected and cells were stained as described (Derup et al., 2020) using LSR II hardware and analyzed by FACS Diva (BD Bioscience) or Flow Jo software (Flow Jo, LLC). Anti-mouse (clone 10F.9G2) and human (clone 29E.2A3) PD-L1 [both PE/Cy7, Cat #124314 (mouse) 329718 (human)] were matched with isotype control. Apoptosis assessment used Annexin V and propidium iodide (Thermo Scientific) per manufacturer instruction.
Western blotting and immunoprecipitation: To prepare whole cell lysates, cells were harvested and lysed in RIPA (radioimmunoprecipitation assay) buffer plus 1 mM phenylmethylsulphonyl fluoride and Halt protease/phosphatase inhibitor cocktail (Thermo Scientific) at 4° C. Protein concentrations were measured by BCA Protein Assay Kit (Thermo Scientific). Protein was run on precast 4-15% sodium dodecyl sulfate polyacrylamide gels (Bio-Rad), transferred to polyvinylidene fluoride membranes (GE Water and Process Technologies), and then blocked in 5% non-fat milk for 1 hour at room temperature. The membranes were then incubated with 1:1000 diluted primary antibodies against indicated proteins (Cell Signaling). Specific antibody binding was detected by chemiluminescence using Western Lightening Plus regent (Perkin Elmer). Cells for (co) immunoprecipitation experiments were seeded in 15-cm dishes and cultured as described, using 6 million cells per immunoprecipitation reaction. For protein ubiquitination, cells were lysed in denaturing buffer (50 mM Tris-HCl, 0.5 mM EDTA and 1% SDS) followed by heating at 95° C. for 10 minutes and then quenched with 9 volumes of quenching buffer (0.5% Triton X-100, 20 mM Tris-HCl (pH 8.0), 137 mM NaCl, 10% glycerol, 2 mM EDTA). Protease inhibitor cocktail (Roche) was added fresh to all buffers. Cell lysates were incubated on a rotator for 30 minutes at 4° C., and then centrifuged at 20,000 g for 15 minutes at 4° C. Supernatants were subsequently incubated with anti-PD-L1 antibody overnight and processed using Dynabeads Protein G for Immunoprecipitation (Thermo Fisher Scientific). The final eluate was processed and Western blotting was performed.

[2] = system: ID8agg cells; experiment: Chk1 inhibitor synthetic lethality with ceftazidime, ID8agg cells; type: cell-based, mouse
Method: (§1) Additional experiments were performed, as follows. MB49 were plated at 2,000 cells/well in 96 well flat bottom plates and treated with PD-L1 depleting drugs, olaparib (2.5 μM), and combination for 96 hours. RT4 were plated at 2,000 cells/well in 96 well flat bottom plates and treated with cefepime, rabusertib (1 μM), praxasertib, or combination for 96 hours. ID8agg, 4T1, and B16 cells were plated on fibronectin at 500 cells/well and treated with cefepime, rabusertib, or combination for 96 hours. Normalized treatment combination to DDR inhibitor alone, and PD-L1 depleting drug to vehicle alone (DMSO) were evaluated.

[3] = system: RT4 cells; experiment: Chk1 inhibitor synthetic lethality with beta-lactam antibiotics, RT4 cells; type: cell-based, human
Method: as §1

With `CC(C)(O/N=C(\C(=O)N[C@@H]1C(=O)N2C(C(=O)[O-])=C(C[n+]3ccccc3)CS[C@H]12)c1csc(N)n1)C(=O)O` [ceftazidime] the “expression of PD-L1 in cancer cells” value [1] was “decreased expression of PD-L1”, the “synthetic lethality with Chk1i” value [2] was “induce synthetic lethality” and the “PD-L1 dependence of synthetic lethality” value ([3]; FIG. 47B) was “PD-L1 dependent”. The “synthetic lethality with Chk1i” value ([3]; RT4 cells, Chk1i rabusertib) was “induce synthetic lethality”.
